Key:
Histamine, H1 = Histamine, H1 (Homo sapiens, UniProt P35367); assay: H1 binding assay by displacement of known standards; conditions: read-out: Receptor Binding Data (Ki nM) H1
Protocol: The following binding assays were performed on the Series 11 compounds described above by displacement of known standards from the H1, M1, M2, and M3 receptors, wherein H1 is a histamine receptor, and M1, M2, and M3 are muscarinic receptors.
The binding studies against the histamine receptor, H1, indicate binding affinity, and therefore the results of the binding assays are an indication of the activity of the compound. […]
The following binding assays were performed on additional compounds described above by displacement of known standards from the H1, M1, M2, and M3 receptors, wherein H1 is a histamine receptor, and M1, M2, and M3 are muscarinic receptors.
The binding assays for H1 was the same as described in Example 10 and the M1, M2, and M3 binding assays are the same as those described in Example 10 for human recombinant expressed cells.

Histamine, H2 = Histamine, H2 (Homo sapiens, UniProt P25021); assay: Receptor selectivity binding assay comparison; conditions: 1.0E−6
HERG = HERG (Homo sapiens, UniProt Q12809)
Male Wistar rats = assay: Sleep-wakefulness, locomotor activity and body temperature monitoring (SCORE-2000), treatment at CT-18; conditions: 30 mg/kg PO, at CT-18
[1] = target: Norepinephrine Transporter (Homo sapiens, UniProt P23975); assay: Receptor selectivity binding assay comparison; conditions: 1.0E−6
[2] = target: T1, Muscarinic, M1 (Human Recombinant) (Homo sapiens, UniProt P11229); assay: Receptor selectivity binding assay comparison; conditions: 1.0E−6
T1 sequence (P11229 1-460): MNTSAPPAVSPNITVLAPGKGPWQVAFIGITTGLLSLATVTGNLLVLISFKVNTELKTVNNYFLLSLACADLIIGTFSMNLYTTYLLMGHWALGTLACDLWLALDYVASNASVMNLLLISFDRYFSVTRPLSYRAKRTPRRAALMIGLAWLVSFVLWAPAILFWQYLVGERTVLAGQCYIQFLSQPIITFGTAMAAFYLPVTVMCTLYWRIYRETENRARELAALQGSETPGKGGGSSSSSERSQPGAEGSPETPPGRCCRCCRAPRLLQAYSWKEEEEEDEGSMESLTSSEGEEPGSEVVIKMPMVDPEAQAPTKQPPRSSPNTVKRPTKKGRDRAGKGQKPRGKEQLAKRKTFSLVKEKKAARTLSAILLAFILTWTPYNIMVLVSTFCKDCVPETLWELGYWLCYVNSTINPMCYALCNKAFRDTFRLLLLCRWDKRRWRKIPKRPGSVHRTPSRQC

Sequence of Norepinephrine Transporter (P23975 whole entry, species assumed): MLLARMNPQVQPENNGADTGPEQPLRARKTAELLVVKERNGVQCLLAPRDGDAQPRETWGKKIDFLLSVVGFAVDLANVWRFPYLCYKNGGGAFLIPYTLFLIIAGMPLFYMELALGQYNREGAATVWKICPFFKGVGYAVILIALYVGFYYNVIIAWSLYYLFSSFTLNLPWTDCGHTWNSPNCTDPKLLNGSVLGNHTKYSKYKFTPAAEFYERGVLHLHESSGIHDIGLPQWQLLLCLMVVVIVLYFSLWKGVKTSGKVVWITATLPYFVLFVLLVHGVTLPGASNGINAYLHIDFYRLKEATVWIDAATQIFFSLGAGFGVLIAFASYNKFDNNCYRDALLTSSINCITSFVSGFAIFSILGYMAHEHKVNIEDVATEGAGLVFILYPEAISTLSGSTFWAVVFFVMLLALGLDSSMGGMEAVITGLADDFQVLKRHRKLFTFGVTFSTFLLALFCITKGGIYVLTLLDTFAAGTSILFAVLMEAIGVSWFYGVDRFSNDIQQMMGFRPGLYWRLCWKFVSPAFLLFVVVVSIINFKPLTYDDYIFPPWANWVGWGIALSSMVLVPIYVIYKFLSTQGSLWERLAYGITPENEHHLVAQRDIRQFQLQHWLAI
Sequence of Histamine, H2 (P25021 whole entry): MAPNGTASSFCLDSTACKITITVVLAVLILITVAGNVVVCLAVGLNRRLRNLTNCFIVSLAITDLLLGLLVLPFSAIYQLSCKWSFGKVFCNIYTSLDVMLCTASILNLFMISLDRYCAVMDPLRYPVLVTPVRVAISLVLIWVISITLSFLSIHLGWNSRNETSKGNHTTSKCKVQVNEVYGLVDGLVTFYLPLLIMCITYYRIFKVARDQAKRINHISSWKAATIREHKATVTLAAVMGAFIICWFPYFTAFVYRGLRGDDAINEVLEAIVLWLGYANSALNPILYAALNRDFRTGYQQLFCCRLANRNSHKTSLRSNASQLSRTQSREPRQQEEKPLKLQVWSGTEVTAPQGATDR
Sequence of Histamine, H1 (P35367 whole entry): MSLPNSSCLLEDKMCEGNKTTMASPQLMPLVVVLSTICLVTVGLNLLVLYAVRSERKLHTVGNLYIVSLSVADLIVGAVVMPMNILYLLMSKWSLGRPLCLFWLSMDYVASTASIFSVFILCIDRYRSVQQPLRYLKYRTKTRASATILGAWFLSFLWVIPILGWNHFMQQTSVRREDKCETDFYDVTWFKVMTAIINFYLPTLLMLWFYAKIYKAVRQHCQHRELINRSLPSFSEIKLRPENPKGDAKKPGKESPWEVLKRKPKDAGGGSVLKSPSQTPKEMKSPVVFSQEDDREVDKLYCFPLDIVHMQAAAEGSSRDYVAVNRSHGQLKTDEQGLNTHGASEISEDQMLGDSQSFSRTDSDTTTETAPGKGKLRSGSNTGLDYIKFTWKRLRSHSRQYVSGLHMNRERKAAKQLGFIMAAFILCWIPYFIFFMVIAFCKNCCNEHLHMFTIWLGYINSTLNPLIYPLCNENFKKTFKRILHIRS
Sequence of HERG (Q12809 whole entry): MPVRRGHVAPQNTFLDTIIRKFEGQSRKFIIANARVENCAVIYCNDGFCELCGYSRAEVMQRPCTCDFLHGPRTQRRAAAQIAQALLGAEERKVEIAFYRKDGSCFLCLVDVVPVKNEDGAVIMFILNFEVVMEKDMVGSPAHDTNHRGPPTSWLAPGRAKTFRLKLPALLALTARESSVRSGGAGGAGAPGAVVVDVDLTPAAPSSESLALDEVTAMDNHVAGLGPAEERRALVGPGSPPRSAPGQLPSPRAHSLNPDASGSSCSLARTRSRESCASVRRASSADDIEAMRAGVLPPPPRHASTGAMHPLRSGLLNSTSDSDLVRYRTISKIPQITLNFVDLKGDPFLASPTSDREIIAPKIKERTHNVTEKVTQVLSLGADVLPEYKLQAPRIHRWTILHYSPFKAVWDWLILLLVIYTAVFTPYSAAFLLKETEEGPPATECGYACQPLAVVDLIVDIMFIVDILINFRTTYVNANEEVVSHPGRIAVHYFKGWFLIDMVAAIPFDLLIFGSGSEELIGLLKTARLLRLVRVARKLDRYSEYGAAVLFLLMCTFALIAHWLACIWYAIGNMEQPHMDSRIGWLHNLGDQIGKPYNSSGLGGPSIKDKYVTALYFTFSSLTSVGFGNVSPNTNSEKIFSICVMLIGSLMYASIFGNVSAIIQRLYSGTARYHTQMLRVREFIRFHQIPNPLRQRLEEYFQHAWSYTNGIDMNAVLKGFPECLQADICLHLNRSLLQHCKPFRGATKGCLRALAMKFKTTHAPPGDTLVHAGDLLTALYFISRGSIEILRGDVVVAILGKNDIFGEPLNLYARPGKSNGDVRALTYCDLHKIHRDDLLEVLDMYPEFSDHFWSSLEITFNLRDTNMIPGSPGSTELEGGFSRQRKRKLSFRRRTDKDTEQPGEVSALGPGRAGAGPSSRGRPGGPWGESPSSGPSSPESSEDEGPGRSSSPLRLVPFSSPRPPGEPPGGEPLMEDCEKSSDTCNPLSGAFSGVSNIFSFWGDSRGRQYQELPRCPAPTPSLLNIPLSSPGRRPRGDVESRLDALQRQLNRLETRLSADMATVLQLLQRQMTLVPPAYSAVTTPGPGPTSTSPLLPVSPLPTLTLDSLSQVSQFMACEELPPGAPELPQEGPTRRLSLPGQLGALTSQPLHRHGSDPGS

O=C(O)CCN1CCC(=C2c3ccccc3COc3ccccc32)CC1 [Series 8a]
Ki (Histamine, H1): 62.5 nM | Percent Inhibition, Histamine, H2 (Histamine, H2): 33.4% | Percent Inhibition, HERG (HERG): 4% | Average Bout-Length (Male Wistar rats): 12.2 min | Maximum Bout Length (Male Wistar rats): 28.9 min | NREM Accum. (Male Wistar rats): 65.8 min | NREM Peak (Male Wistar rats): 75.5 %/hr | Onset (Male Wistar rats): 65 min | Percent Inhibition, Norepinephrine Transporter [1]: −3.9% | Percent Inhibition, Muscarinic, M1 (Human Recombinant) [2]: 3.3%
